US9051579B2, “Herbicide-tolerant plants through bypassing metabolic pathway” (Bayer S.A.S., priority 2000, dated 2015)

What was measured:
HPP oxidase (HPPO) = assay: HPP oxidase activity assay (colorimetric / HPLC), influence of added compounds; assay type: biochemical, Arthrobacter globiformis; details: 115 ppm
Text: The enzyme reaction is stopped by adding 2,4-dinitrophenylhydrazine (2,4-DNPH), in solution in 2 M HCl. The 2, 4-DNPH reacts with the ketone function in the alpha position of a carboxylic function (example: HPP). […] When the HPP is completely converted to 4-HPA during the enzyme reaction, the hydrazone cannot form, and the characteristic yellow color of 2,4-DHPA is therefore obtained in basic medium. If the HPP is not completely converted to 4-HPA during the enzyme reaction, the formation of hydrazone is possible. These hydrazones are brown in color in basic medium. A variation in color between these two extremes is obtained as a function of the amount of HPP consumed. The absorption measurements are carried out at 445 or 450 nm. In order to make this assay more easy to handle, we adapted it to the 96-well microplate format. The reaction mixture comprises GSH (900 μM); HPP (135 μM); TPP (1.8 mM); MgCl2 (4.5 mM); FAD (4 μM); potassium phosphate buffer (90 mM) pH 7.4. The mixture is kept on ice. 50 μL of the test fraction and 150 μL of reaction mixture are placed in each well. After 20 min at 30° C., the enzyme reaction is stopped with 13 μL of 2,4-DNPH solution (0.1% in 2 M HCl). The mixture is left to react for 20 min at ambient temperature. […] To prepare the standard range, reaction mixtures with varying concentrations of HPP are prepared. […]

Arabidopsis seeds = assay: Germination of Arabidopsis seeds on MS medium with DKN, with or without homogentisate; assay type: in vivo
Procedure: 1 Murashige and Skoog medium (T. Murashige and F. Skoog, 1962. A revised medium for a rapid growth and bioassays with tobacco tissue culture. Physiol. Plant. 15, 473-479), control experiment for germination
2 MS medium plus DKN at a dose of 1 ppm
3 MS medium plus DKN at the same dose+homogentisate at a concentration of 5 mM.

[1] = medium 2: MS medium plus DKN at 1 ppm

Row | Structure (SMILES) | inhibition of the HPPO (HPP oxidase (HPPO)) | germination and pigmentation of the plantlet (Arabidopsis seeds; [1]) | survival of the plantlets (Arabidopsis seeds; [1]) | germination and pigmentation of the plantlet (Arabidopsis seeds; medium 3: MS medium plus DKN 1 ppm + homogentisate 5 mM) | later development of the plants (Arabidopsis seeds; medium 3: MS medium plus DKN 1 ppm + homogentisate 5 mM, as homogentisate in the medium decreases)
1 | CC(C)C1(C)N=C(c2ncccc2C(=O)O)NC1=O (centres unmarked) [imazapyr] | not inhibited |  |  |  | 
2 | CS(=O)(=O)c1cc(C(F)(F)F)ccc1C(=O)C(C#N)C(=O)C1CC1 (centres unmarked) [DKN] |  | germination occurs, but the plantlet which emerges is white, the two cotyledons exhibiting no pigmentation | die in a few days | germination occurs normally, the cotyledons are clearly green | the first symptoms of bleaching appear and plant growth stops, they end up dying
